Assay results taken from patent US8354436B2 (4SC Discovery GmbH, priority 2011, dated 2013).
pIC50: −log10 of the molar value. Like-named read-outs stand apart in the source and are kept apart here.

Tested on: IFN-γ
Assay: IFN-γ production by PHA-stimulated human PBMC (OptEIA human IFN-g ELISA)
Format: cell-based
Conditions: 48 hours
Method: Analysis of Proliferation of and Cytokine Production by Human PBMC Stimulated with PHA
Peripheral blood mononuclear cells (PBMC) from healthy human donors were purified using Accuspin™ System-Histopaque-1077 (Sigma) according to the protocol recommended by the manufacturer. Purified PBMC were then washed twice with phosphate-buffered saline (PBS) and resuspended in RPMI1640 culture medium supplemented with 10% dialyzed heat inactivated fetal calf serum, 1.5 mM L-glutamine, 100 U penicillin/ml, and […] (all from PAN Biotech, Aidenbach, Germany). For stimulation, PBMC were seeded at 1×10^5 cells/well, activated with 2 μg/ml phytohaemagglutinin (PHA, Sigma) and incubated with the test compounds for 48 hours. IL-17A, IL-17F and INF-γ were then determined in the culture supernatant using a Luminex BioPlex system, following the manufacturer's instructions (BioRad, Munich, Germany). For screening, compounds were used at 10, 1, 0.1 and 0.01 μM. To determine the IC50, compounds were titrated semilogarithmically.
Cytokines were determined in the aforementioned culture supernatant using the following methods: IL-17AA/AF was measured using the Luminex BioPlex system (BioRad, Munich, Germany); IL-17AA using the human homodimer IL-17A ELISA Ready Set Go Kit from eBioscience (Frankfurt, Germany); IL-17FF using the human IL-17F ELI-Pair from Hölzel DiagnosticaGmBH (Köln, Germany); and IFN-γ using the OptEIA human IFN-g ELISA from BD Bioscience (Heidelberg, Germany), all following the manufacturer's instructions.

[1] = PHA-stimulated human PBMC, column C, read-out: IC50 (IFNγ)

| Compound | pIC50 [1] | pIC50 (human PBMC, 2 μg/ml PHA, read-out: C: IC50 (IFNγ)) |
| --- | --- | --- |
| COC(=O)c1c(-c2c(F)cccc2Cl)noc1-c1cnn(CCO)c1C(F)(F)F [Example I-83, methyl 3-(2-chloro-6-fluorophenyl)-5-(1-(2-hydroxyethyl)-5-(trifluoromethyl)-1H-pyrazol-4-yl)isoxazole-4-carboxylate] | 5.00 to 6.00 | – |
| CC(=O)NNC(=O)c1c(-c2c(F)cccc2Cl)noc1-c1cnn(-c2ccccc2F)c1C(F)(F)F [Example I-142, N′-acetyl-3-(2-chloro-6-fluorophenyl)-5-(1-(2-fluorophenyl)-5-(trifluoromethyl)-1H-pyrazol-4-yl)isoxazole-4-carbohydrazide] | 5.00 to 6.00 | – |
| CCOC(=O)c1c(-c2onc(-c3c(F)cccc3Cl)c2C(=O)OC)cnn1-c1c(F)c(F)cc(F)c1F [Example I-38, methyl 3-(2-chloro-6-fluorophenyl)-5-(5(ethoxycarbonyl)-1-(2,3,5,6-tetrafluorophenyl)-1H-pyrazol-4-yl)isoxazole-4-carboxylate] | 5.00 to 6.00 | – |
| COC(=O)c1c(-c2c(F)cccc2Cl)noc1-c1cnn(CCN2CCCCC2)c1C(F)(F)F [Example I-104, methyl 3-(2-chloro-6-fluorophenyl)-5-(1-(2-(piperidin-1-yl)ethyl)-5-(trifluoromethyl)-1H-pyrazol-4-yl)isoxazole-4-carboxylate] | 5.00 to 6.00 | – |
| CCOC(=O)c1c(-c2onc(-c3c(F)cccc3Cl)c2C(=O)OC)cnn1-c1ccccc1OC [Example I-40] | 5.00 to 6.00 | – |
| Fc1ccc(-n2ncc(-c3cc(-c4c(F)cccc4Cl)no3)c2C(F)(F)F)cc1 [Example I-25, 3-(2-chloro-6-fluorophenyl)-5-(1-(4-fluorophenyl)-5-(trifluoromethyl)-1H-pyrazol-4-yl)isoxazole] | 5.00 to 6.00 | – |
| Fc1cccc(Cl)c1-c1noc(-c2cnn(-c3ccccc3Cl)c2C(F)(F)F)c1-c1nnco1 [Example B-14, 2-(3-(2-chloro-6-fluorophenyl)-5-(1-(2-chlorophenyl)-5-(trifluoromethyl)-1H-pyrazol-4-yl)isoxazol-4-yl)-1,3,4-oxadiazole] | – | 5.00 to 6.00 |
| Fc1ccccc1-n1ncc(-c2onc(-c3c(F)cccc3Cl)c2C(=S)N2CCOCC2)c1C(F)(F)F [Example I-123, (3-(2-chloro-6-fluorophenyl)-5-(1-(2-fluorophenyl)-5-(trifluoromethyl)-1H-pyrazol-4-yl)isoxazol-4-yl)(morpholino)meth-anethione] | 5.00 to 6.00 | – |
| O=C(O)c1c(-c2cccc(F)c2)noc1-c1cnn(-c2cccc(F)c2)c1C(F)(F)F [Example I-114, 3-(3-fluorophenyl)-5-(1-(3-fluorophenyl)-5-(trifluoromethyl)-1H-pyrazol-4-yl)isoxazole-4-carboxylic acid] | 5.00 to 6.00 | – |

Next, values leading:

| pIC50 [1] | pIC50 (human PBMC, 2 μg/ml PHA, read-out: C: IC50 (IFNγ)) | Compound |
| --- | --- | --- |
| 5.00 to 6.00 | – | CCOC(=O)c1c(-c2onc(-c3c(F)cccc3Cl)c2C(=O)OC)cnn1-c1ccc(OC(F)(F)F)cc1 [Example I-45, methyl 3-(2-chloro-6-fluoro-phenyl)-5-(5-(ethoxycarbonyl)-1-(4-(trifluoromethoxy)phenyl)1H-pyrazol-4-yl)isoxazole-4-carboxylate] |
| 5.00 to 6.00 | – | COC(=O)c1c(-c2c(F)cccc2Cl)noc1-c1cnn(Cc2ccccn2)c1C(F)(F)F [Example I-101, methyl 3-(2-chloro-6-fluorophenyl)-5-(1-(pyridin-2-ylmethyl)-5-(trifluoromethyl)-1H-pyrazol-4-yl)isoxazole-4-carboxylate] |
| 5.00 to 6.00 | – | CCOC(=O)c1c(-c2onc(-c3c(F)cccc3Cl)c2C(=O)OC)cnn1-c1ccsc1C(=O)OC [Example I-15, methyl 3-(2-chloro-6-fluorophenyl)-5-(5-(ethoxycarbonyl)-1-(2-(methoxycarbonyl)thiophen-3-yl)-1H-pyrazol-4-yl)isoxazole-4-carboxylate] |
| 5.00 to 6.00 | – | CC(C)Cn1ncc(-c2onc(-c3c(F)cccc3Cl)c2C(=O)O)c1C(F)(F)F [IB-19, 3-(2-chloro-6-fluorophenyl)-5-(1-isobutyl-5-(trifluoromethyl)-1H-pyrazol-4-yl)isoxazole-4-carboxylic acid] |
| 5.00 to 6.00 | – | COC(=O)c1c(-c2c(F)cccc2Cl)noc1-c1cnn(-c2ccc(OC)cc2)c1C(F)(F)F [Example I-79] |
